Experimental data as given in patent US20150278438A1, “GENETIC PREDICTORS OF RESPONSE TO TREATMENT WITH CRHR1 ANTAGONISTS” (MAX-PLANCK-GESELLSCHAFT ZUR FÖRDERUNG DER WISSENSCHAFTEN …, priority 2012, published 2015).

Experiments:
Cor26 CRH mice = assay: Sleep EEG/EMG recording of REMS levels in Cor26 CRH mice treated with CRH-R1 antagonist; conditions: 50 mg/kg/d via drinking water; for REMS levels: CRH-overexpressing Cor26 CRH mice
CRH-COE^CNS mice = assay: Sleep EEG/EMG recording of REMS activity in CRH-COE^CNS mice treated with CRH-R1 antagonist; type: in vivo, mouse; conditions: 50 mg/kg/d via drinking water; for REMS activity: CRH-COE^CNS mice, versus baseline, significant beginning with treatment day two (DMP-696 P<0.05; SSR125543 P≦0.035)
Procedure: Experiments were conducted with two different mouse lines of excessive central CRH secretion and their respective control littermates (CL). Mice of the CRH-COE^CNS line are characterised by CRH-overexpression within the whole CNS, whereas mice of the Cor26 CRH line display a CRH-overexpression specific to CRH-ergic neurons of the CNS. Three different CRHR1 antagonists were tested. […] In all cases, animals were left to recover from EEG/EMG-electrode implantation for two weeks, after which two days of baseline recording were initiated. Treatment with CRH-R1 antagonist or respective vehicle control commenced thereafter for five consecutive days. Antagonists were applied through the drinking water at a daily dose of 50 mg/kg body weight. EEG and EMG recordings were manually scored as wake, non-REMS (NREMS), and REMS in four second epochs by an experienced evaluator.

[1] = test system: mice overexpressing CRH in the forebrain; conditions: Kimura et al. 2010; cited from earlier work

| SMILES | REMS levels (Cor26 CRH mice; 50 mg/kg/day) | REMS levels (Cor26 CRH mice; listed as CP-316311, 50 mg/kg/day) | REMS levels, area under the curve (AUC) within the light period, baseline versus treatment day three (Cor26 CRH mice; Cor26 CRH mice, P=0.006) | REMS activity, treatment day three (CRH-COE^CNS mice; CRH-COE^CNS animals, treatment day three) | REMS activity (CRH-COE^CNS mice; 50 mg/kg/day) | REMS activity (CRH-COE^CNS mice; listed as DMP696, 50 mg/kg/day) | REM enhancement [1] |
| --- | --- | --- | --- | --- | --- | --- | --- |
| CCC(CC)Oc1cc(C)nc(Oc2c(C)cc(C)cc2C)c1C [CP-316,311] | apparently seemed weak | suppressed | significant decrease | – | – | – | – |
| COCC(COC)Nc1nc(C)nc2c(-c3ccc(Cl)cc3Cl)c(C)nn12 [DMP-696] | – | – | – | strongest suppression | significant decrease | suppressed | reverse the REM enhancement |
